US20170239237A1, “PYRROLOQUINOLINE DERIVATIVES AS 5-HT6 ANTAGONISTS, PREPARATION METHOD AND USE THEREOF” (Uniwersytet Jagiellonski, priority 2013, published 2017)
Read-outs that look alike come from different tables or passages of the source.

Key:
[1] = biological target: T1, 5-HT6 receptor (Homo sapiens, UniProt P50406); test: CHO-human-5HT6-Aequorin functional assay (ago-/antagonism); settings: test concentration not given; for % inhibition of control agonist response: agonist effect, CHO-human-5HT6-Aequorin cells; for % inhibition of control antagonist response: antagonist effect vs 10^-6 M α-methylserotonin induced luminescence
T1 sequence (P50406 whole entry): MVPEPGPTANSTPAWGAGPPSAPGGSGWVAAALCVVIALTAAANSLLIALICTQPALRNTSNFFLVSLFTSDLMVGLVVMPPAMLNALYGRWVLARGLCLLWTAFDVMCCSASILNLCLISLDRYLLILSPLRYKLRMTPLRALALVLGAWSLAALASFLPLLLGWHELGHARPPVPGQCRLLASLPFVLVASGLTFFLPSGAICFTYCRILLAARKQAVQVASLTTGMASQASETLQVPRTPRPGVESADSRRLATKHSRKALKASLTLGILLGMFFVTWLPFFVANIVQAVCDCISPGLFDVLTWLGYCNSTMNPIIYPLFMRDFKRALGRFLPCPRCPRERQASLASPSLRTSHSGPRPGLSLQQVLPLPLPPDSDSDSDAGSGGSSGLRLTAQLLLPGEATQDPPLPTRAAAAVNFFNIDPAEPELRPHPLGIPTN

[2] = biological target: 5-HT7 receptor (Homo sapiens, UniProt P34969); test: Radioligand binding, 5-HT7 ([3H]-5-CT displacement)
Chain of 5-HT7 receptor (P34969 1-432 limits assumed): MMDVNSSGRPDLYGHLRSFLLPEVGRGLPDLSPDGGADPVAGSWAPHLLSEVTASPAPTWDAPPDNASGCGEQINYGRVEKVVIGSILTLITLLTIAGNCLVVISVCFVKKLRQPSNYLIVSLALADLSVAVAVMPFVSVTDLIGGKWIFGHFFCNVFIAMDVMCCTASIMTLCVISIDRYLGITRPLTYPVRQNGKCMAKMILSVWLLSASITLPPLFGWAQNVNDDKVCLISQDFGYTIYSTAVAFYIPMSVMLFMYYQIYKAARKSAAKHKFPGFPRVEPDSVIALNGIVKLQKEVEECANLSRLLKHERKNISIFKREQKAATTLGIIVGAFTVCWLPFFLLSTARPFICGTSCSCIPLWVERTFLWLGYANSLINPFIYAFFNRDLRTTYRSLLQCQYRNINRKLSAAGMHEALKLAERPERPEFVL

[3] = biological target: T1, 5-HT6 receptor; test: Radioligand binding, 5-HT6 ([3H]-LSD displacement)
[4] = biological target: dopamine D2L receptor (Homo sapiens, UniProt P14416); test: Radioligand binding, D2 ([3H]-raclopride displacement)
Chain of dopamine D2L receptor (P14416 whole entry): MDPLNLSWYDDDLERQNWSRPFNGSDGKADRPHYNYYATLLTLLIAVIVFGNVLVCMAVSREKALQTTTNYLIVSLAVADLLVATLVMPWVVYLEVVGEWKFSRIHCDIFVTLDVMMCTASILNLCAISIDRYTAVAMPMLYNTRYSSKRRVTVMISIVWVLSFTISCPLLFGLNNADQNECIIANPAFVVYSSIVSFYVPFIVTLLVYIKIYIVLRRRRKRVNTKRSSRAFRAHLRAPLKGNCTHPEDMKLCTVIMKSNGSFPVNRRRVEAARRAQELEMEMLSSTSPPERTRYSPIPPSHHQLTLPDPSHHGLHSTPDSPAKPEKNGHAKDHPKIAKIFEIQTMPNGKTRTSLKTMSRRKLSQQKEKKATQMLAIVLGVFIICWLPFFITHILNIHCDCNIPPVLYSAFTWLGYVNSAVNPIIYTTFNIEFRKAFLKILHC

[5] = biological target: T2, 5-HT1A receptor (Homo sapiens, UniProt P08908); test: Radioligand binding, 5-HT1A ([3H]-8-OH-DPAT displacement)
T2 sequence (P08908 1-422): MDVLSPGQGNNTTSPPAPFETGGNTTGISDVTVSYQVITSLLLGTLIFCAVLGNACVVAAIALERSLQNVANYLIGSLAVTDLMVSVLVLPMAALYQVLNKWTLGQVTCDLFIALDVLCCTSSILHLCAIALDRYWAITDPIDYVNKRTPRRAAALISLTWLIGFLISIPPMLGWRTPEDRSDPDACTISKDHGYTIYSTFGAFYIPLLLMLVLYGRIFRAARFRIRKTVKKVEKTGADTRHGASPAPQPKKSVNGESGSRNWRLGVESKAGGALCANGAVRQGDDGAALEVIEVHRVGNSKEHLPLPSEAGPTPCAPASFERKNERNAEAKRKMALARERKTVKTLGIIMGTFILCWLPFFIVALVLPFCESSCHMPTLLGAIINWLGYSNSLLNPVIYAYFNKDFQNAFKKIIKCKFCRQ

[6] = read-out: Ki D2, cloned human receptor in HEK293, three independent experiments, SEM ± 22%
[7] = read-out: Ki 5-HT1A, cloned human receptor in HEK293, three independent experiments, SEM ± 22%
[8] = read-out: Ki 5-HT6, cloned human receptor in HEK293, three independent experiments, SEM ± 22%

Compound	% inhibition of control agonist response [1]	% inhibition of control antagonist response [1]	Ki [2]	Ki [3]	Ki [4]	Ki [5]	Ki ([2]; read-out: Ki 5-HT7)	Ki [4, 6]	Ki [5, 7]	Ki ([2]; read-out: Ki 5-HT7, cloned human receptor in HEK293, three independent experiments, SEM ± 22%)	Ki [3, 8]
N#Cc1cccc(S(=O)(=O)n2ccc3c(N4CCNCC4)nc4ccccc4c32)c1 [Compound 38, 1-((3-cyanophenyl)sulfonyl)-4-(piperazin-1-yl)-1H-pyrrolo[3,2-c]quinoline]	7.0%	61.3%	2390 nM	14 nM	4690 nM	218 nM					
O=S(=O)(c1ccccc1Br)n1ccc2c(N3CCNCC3)nc3ccccc3c21 [Compound 28, 1-((2-bromophenyl)sulfonyl)-4-(piperazin-1-yl)-1H-pyrrolo[3,2-c]quinoline]			7900 nM	3 nM	7150 nM	1220 nM					
O=S(=O)(c1cccc2ccccc12)n1ccc2c(NC3CCNC3)nc3ccccc3c21 (stereo not drawn) [Compound 21, 1-(naphthalen-1-ylsulfonyl)-N-(pyrrolidin-3-yl)-1H-pyrrolo[3,2-c]quinolin-4-amine]	10.6%	60.0%	1420 nM	19 nM	2260 nM	5330 nM					
Cc1cccc(S(=O)(=O)n2ccc3c(N4CCNCC4)nc4ccccc4c32)c1 [Compound 39, 1-((3-methylphenyl)sulfonyl)-4-(piperazin-1-yl)-1H-pyrrolo[3,2-c]quinoline]							4140 nM	2160 nM	760 nM		
O=S(=O)(c1cccc(C(F)(F)F)c1)n1ccc2c(NC3CCNC3)nc3ccccc3c21 (stereo not drawn) [Compound 14, 1-((3-(trifluoromethyl)phenyl)sulfonyl)-N-(pyrrolidin-3-yl)-1H-pyrrolo[3,2-c]quinolin-4-amine]	10.8%	88.8%	3820 nM	7 nM	1280 nM						
COc1cccc(S(=O)(=O)n2ccc3c(NC4CCNC4)nc4ccccc4c32)c1 (stereo not drawn) [Compound 13, 1-((3-methoxyphenyl)sulfonyl)-N-(pyrrolidin-3-yl)-1H-pyrrolo[3,2-c]quinolin-4-amine]	6.5%	68.8%	4850 nM	6 nM	513 nM	5190 nM					
O=S(=O)(c1ccccc1)n1ccc2c(N3CCN(Cc4ccccc4)CC3)nc3ccccc3c21 [Compound 60, 1-(phenylsulfonyl)-4-(4-benzylpiperazin-1-yl)-1H-pyrrolo[3,2-c]quinoline]			2360 nM	220 nM	415 nM	33000 nM					
O=S(=O)(c1cccc(F)c1)n1ccc2c(NC3CCNC3)nc3ccccc3c21 (stereo not drawn) [Compound 8, 1-((3-fluorophenyl)sulfonyl)-N-(pyrrolidin-3-yl)-1H-pyrrolo[3,2-c]quinolin-4-amine]	9.6%	80.8%	9590 nM	5 nM	900 nM	3010 nM					
O=S(=O)(c1ccc(F)c(F)c1)n1ccc2c(N3CCNCC3)nc3ccccc3c21 [Compound 33, 1-((3,4-difluorophenyl)sulfonyl)-4-(piperazin-1-yl)-1H-pyrrolo[3,2-c]quinolinee]			5010 nM		1780 nM	311 nM					
O=S(=O)(c1cccc(Cl)c1)n1ccc2c(N3CCOCC3)nc3ccccc3c21 [Compound 78, 1-((3-chlorophenyl)sulfonyl)-4-(morpholine-4-yl)-1H-pyrrolo[3,2-c]quinoline]	21.3%	23.8%	20100 nM	157 nM	37200 nM	457000 nM					
CN1CCN(c2nc3ccccc3c3c2ccn3S(=O)(=O)c2ccc(N)cc2)CC1 [Compound 57, 1-((4-aminophenyl)sulfonyl)-4-(4-methylpiperazin-1-yl)-1H-pyrrolo[3,2-c]quinoline]	1.5%	97.3%									
CN1CCN(c2nc3ccccc3c3c2ccn3S(=O)(=O)c2cccc3cccnc23)CC1 [Compound 59, 1-(quinolin-8-ylsulfonyl)-4-(4-methylpiperazin-1-yl)-1H-pyrrolo[3,2-c]quinolone]	16.9%	61.0%						1920 nM	208 nM	7690 nM	< 1 nM
CN1CCN(c2nc3ccccc3c3c2ccn3S(=O)(=O)c2ccccc2)CC1 [Compound 53, 1-(phenylsulfonyl)-4-(4-methylpiperazin-1-yl)-1H-pyrrolo[3,2-c]quinoline]			3800 nM		342 nM	127 nM					
O=S(=O)(c1cccc(Cl)c1)n1ccc2c(NC3CCNC3)nc3ccccc3c21 (stereo not drawn) [Compound 5, 1-((3-chlorophenyl)sulfonyl)-N-(pyrrolidin-3-yl)-1H-pyrrolo[3,2-c]quinolin-4-amine]			2130 nM		1440 nM	3030 nM					
O=S(=O)(c1cccc2cccnc12)n1ccc2c(N3CCN(Cc4ccccc4)CC3)nc3ccccc3c21 [Compound 62, 1-(quinolin-8-ylsulfonyl)-4-(4-benzylpiperazin-1-yl)-1H-pyrrolo[3,2-c]quinoline]			5870 nM	66 nM	1470 nM	3520 nM					
O=S(=O)(c1ccc(C(F)(F)F)cc1)n1ccc2c(N3CCNCC3)nc3ccccc3c21 [Compound 36, 1-((4-(trifluoromethyl)phenyl)sulfonyl)-4-(piperazin-1-yl)-1H-pyrrolo[3,2-c]quinoline]			2260 nM		13300 nM	194 nM					34 nM
CN1CCN(c2nc3ccccc3c3c2ccn3S(=O)(=O)c2cccc(Cl)c2)CC1 [Compound 54, 1-((3-chlorophenyl)sulfonyl)-4-(4-methylpiperazin-1-yl)-1H-pyrrolo[3,2-c]quinoline]			3490 nM		1260 nM	519 nM					
CN1CCN(c2nc3ccccc3c3c2ccn3S(=O)(=O)c2cccc(F)c2)CC1 [Compound 55, 1-((3-fluorophenyl)sulfonyl)-4-(4-methylpiperazin-1-yl)-1H-pyrrolo[3,2-c]quinoline]			8250 nM		894 nM	640 nM					
O=S(=O)(c1cccc2cccnc12)n1ccc2c(N3CCCCC3)nc3ccccc3c21 [Compound 77, 1-(quinolin-8-ylsulfonyl)-4-(piperidin-1-yl)-1H-pyrrolo[3,2-c]quinoline]			27000 nM	188 nM	5830 nM	85400 nM					
O=S(=O)(c1ccc(Cl)s1)n1ccc2c(N3CCN(Cc4ccccc4)CC3)nc3ccccc3c21 [Compound 61, 1-((5-chlorothiophen-2-yl)sulfonyl)-4-(4-benzylpiperazin-1-yl)-1H-pyrrolo[3,2-c]quinoline]			16200 nM	93 nM	239 nM	12800 nM					
O=S(=O)(c1cccc(Cl)c1)n1ccc2c(N3CCCCC3)nc3ccccc3c21 [Compound 76, 1-((3-chlorophenyl)sulfonyl)-4-(piperidin-1-yl)-1H-pyrrolo[3,2-c]quinoline]	22.2%	11.6%	22300 nM	361 nM	14500 nM						
CN(C)CCNc1nc2ccccc2c2c1ccn2S(=O)(=O)c1ccccc1 [Compound 1, N1,N1-dimethyl-N2-(1-(phenylsulfonyl)-1H-pyrrolo[3,2-c]quinolin-4-yl)ethane-1,2-diamine]			3970 nM	10 nM	2260 nM	1880 nM					
O=S(=O)(c1cc(F)ccc1F)n1ccc2c(N3CCNCC3)nc3ccccc3c21 [Compound 32, 1-((2,5-difluorophenyl)sulfonyl)-4-(piperazin-1-yl)-1H-pyrrolo[3,2-c]quinoline]			7690 nM		5090 nM	238 nM					
O=S(=O)(c1ccc(F)cc1)n1ccc2c(N3CCNCC3)nc3ccccc3c21 [Compound 31, 1-((4-fluorophenyl)sulfonyl)-4-(piperazin-1-yl)-1H-pyrrolo[3,2-c]quinoline]			6400 nM		5940 nM	214 nM					18 nM
Cc1ccc2sc(S(=O)(=O)n3ccc4c(NC5CCNC5)nc5ccccc5c43)cc2c1 (stereo not drawn) [Compound 23, 1-((5-methylbenzo[b]thiophen-2-yl)sulfonyl)-N-(pyrrolidin-3-yl)-1H-pyrrolo[3,2-c]quinolin-4-amine]			1310 nM	94 nM	1550 nM	19100 nM					
